pEC50, pIC50: −log10 of the molar value. Like-named read-outs stand apart in the source and are kept apart here.
What was measured:
in vitro [1] = conditions: human
SDH-A = experiment: Quantitative immunocytochemistry on HAE cells, nuclear-encoded protein; conditions: read-out: IC50, steady-state level of nuclear-encoded SDH-A
[2] = target: RdRP activity of Nipah virus (NiV) (Nipah virus, UniProt Q997F0); format: cell-based
recRSV-A2-L19F = format: in vivo, BALB/cJ mice
SARS-CoV-2 = experiment: microbe, parasite or virus in culture; format: cell-based; conditions: Severe acute respiratory syndrome coronavirus 2
measles virus (MeV) = experiment: Dose-response inhibition of recombinant mononegaviruses: MeV; format: cell-based
[3] = Single oral dose pharmacokinetics in ferret plasma; conditions: in vivo
[4] = human, 20 μM
COX-I = experiment: Quantitative immunocytochemistry on HAE cells, mitochondrial-encoded protein; conditions: read-out: IC50, steady-state level of mitochondrial-encoded COX-I
[5] = tested on: paramyxovirus RdRP complex; format: cell-based, MeV, HPIV-3
Sendai virus (SeV) = experiment: Dose-response inhibition of recombinant mononegaviruses: SeV; format: cell-based
[6] = tested on: SARS-CoV-2 WA1 or VoC alpha, gamma, or delta; experiment: Ferret model of SARS-CoV-2 infection, oral treatment; format: in vivo
rabies virus (RabV) = format: cell-based
SARS-CoV-2 WA1 isolate = experiment: Virus yield reduction of SARS-CoV-2 WA1 shed apically from ALI HAE organoids; format: cell-based
Excerpt: To test activity against SARS-CoV-2 in the human airway organoids, we first confirmed that the WA1 isolate replicated efficiently in HAEs of all donors tested (Fig. 5, A to C, and fig. S15).
Fig. 5. Efficacy of 4′-FlU against SARS-CoV-2 replication in HAE organoids. (A) Multicycle growth curve of SARS-CoV-2 WA1 isolate on ALI HAE from two donors. Shed virus was harvested daily and titered by plaque assay (n = 3). (B and C) Confocal microscopy of ALI HAE cells from “F1” donor mock-infected (B) or infected (C) with SARS-CoV-2 WA1 isolate, at 3 days post-infection. SARS-CoV-2 infected cells, goblet cells, and nuclei were stained with anti-SARS-CoV-2 N immunostaining, anti-MUC5AC immunostaining, and Hoechst 34580, pseudo-colored in red, green, and blue, respectively. z-stacks of 35 μm slices (1 μm thick) with 63× objective with oil immersion. […] Rare ciliated cells positive for N are represented in (F).

[7] = tested on: human parainfluenza virus type 3 (HPIV3); experiment: Dose-response inhibition of recombinant mononegaviruses: HPIV3; format: cell-based
[8] = tested on: vesicular stomatitis virus (VSV); format: cell-based
in vitro [9] = experiment: in vitro
[10] = tested on: RSV (recRSV A2-L19F and clinical RSV isolates); experiment: microbe, parasite or virus in culture; format: cell-based; conditions: human respiratory syncytial virus, HEp-2, read-out: half-maximal effective concentrations (EC50 values)
[11] = mouse, in vivo
RSV RdRP complex = RSV RdRP complex (Human respiratory syncytial virus A, UniProt P28887); format: cell-based
[12] = ferret, in vivo, po
in vitro [13] = conditions: human; remark: listed apart in the source
[14] = tested on: O=c1ccn(C2OC(F)(COP(=O)(O)OP(=O)(O)OP(=O)(O)O)C(O)C2O)c(=O)[nH]1; experiment: purified protein, by the assay type; conditions: other: Fig. 2D, Michaelis-Menten model
[15] = WA1, once-daily oral 20 mg/kg from 12 hours after infection, within 12 hours of treatment onset

What does the source list for `O=c1ccn([C@@H]2O[C@](F)(CO)[C@@H](O)[C@H]2O)c(=O)[nH]1` [4′-FlU, 4′-fluorouridine]?
CC50 (in vitro [1]): 169 µM; pIC50 (SDH-A): 3.56; RdRP activity in NiV minireplicon reporter assay [2]: efficiently inhibited; bioluminescence intensity in lungs (IVIS) (recRSV-A2-L19F; mouse, in vivo): considerable reduction; lung virus burden compared with vehicle-treated animals (recRSV-A2-L19F; mouse, in vivo): statistically significant reduction; lung virus load compared with vehicle-treated animals (recRSV-A2-L19F; mouse, in vivo): statistically significant reduction; reduction in lung virus load (recRSV-A2-L19F; mouse, in vivo, po, 5 mg/kg): nearly two orders of magnitude; therapeutic window (time of treatment start after infection) (recRSV-A2-L19F; requiring reduction of lung virus load of at least one order of magnitude): 24 h; effect of twice-daily dosing regimen on efficacy (recRSV-A2-L19F; versus once-daily oral dosing): did not significantly enhance efficacy; pEC50 (SARS-CoV-2): 6.22 to 6.70; active concentrations (measles virus (MeV)): submicromolar; Cmax ([3]; 15 mg/kg): 34.8 µM; Cmax ([3]; 50 mg/kg): 63.3 µM; intracellular level ([4]; 1 h): 3.42 nmol/million cells; pIC50 (COX-I): 3.83; RdRP complex activity in minireplicon [5]: inhibited; active concentrations (Sendai virus (SeV)): submicromolar; virus burden in nasal lavages ([6]; VoC alpha, gamma, delta, 36 to 48 hours after onset of oral treatment): below the level of detection; reduction of virus burden in nasal lavages [6, 15]: approximately three orders of magnitude; virus burden in nasal lavages [6, 15]: < 50 PFU/ml; time of treatment until shedding of infectious particles ceased completely ([6]; all animals, 3 days post-infection): 2.5 days; active concentrations (rabies virus (RabV)): submicromolar; SARS-CoV-2 nucleocapsid protein in epithelium by confocal microscopy (SARS-CoV-2 WA1 isolate; 50 μM 4′-FlU): largely devoid; maximal effect size, reduction of apical virus shedding (SARS-CoV-2 WA1 isolate; 50 μM basolateral 4′-FlU): approximately two orders of magnitude; active concentrations [7]: submicromolar; active concentrations [8]: submicromolar; CC50 (in vitro [9]): 250 µM; pEC50 [10]: 5.92 to 6.21; effect on the hematopoietic system (blood analysis) [11]: no antiproliferative effect; RdRP complex activity in minireplicon (RSV RdRP complex): inhibited; overall exposure ([12]; 15 mg/kg): 154 ± 27.6 µM·h; overall exposure ([12]; 50 mg/kg): 413.1 ± 78.1 µM·h

Which results are given for `O=c1ccn(C2OC(F)(COP(=O)(O)OP(=O)(O)OP(=O)(O)O)C(O)C2O)c(=O)[nH]1` (stereo not drawn) [4′-FlU-TP]?
intracellular concentration at peak ([4]; 4 h): 10.38 nmol/million cells; intracellular concentration at plateau ([4]; 24 h): 1.31 nmol/million cells; half-life at 20 μM (in vitro [13]): 9.7 h

For “recombinant RSV RdRP complexes (L and P proteins) (Human respiratory syncytial virus A2)”, which Km [14] is on record?
The Km was 24.9 µM.

From PMC9206510, “4′-Fluorouridine is an oral antiviral that blocks respiratory syncytial virus and SARS-CoV-2 replication” (Science (New York, N.y.), 2021)
